Test results published in patent publication US5594009A, “Fused pyrrolocarbazoles” (priority 1995, dated 1997).

Columns and labels:
[1] = system: ChAT activity of basal forebrain cultures; assay: Basal Forebrain ChAT Activity Assay; assay type: cell-based, rat
Method in brief: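 Basal forebrain neurons from E17–18 rat embryos were Dispase-dissociated and plated at 5×10^4 cells/well on poly-ornithine/laminin. Cultures were kept in serum-free N2 medium with 0.05% BSA at 37° C. ChAT activity was measured 5 days after plating as the read-out for compound-induced increase.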

[2] = system: choline acetyltransferase (ChAT) activity in dissociated rat embryonic spinal cord culture; assay: Spinal Cord ChAT Activity Assay; assay type: cell-based; details: ChAT measured after 48 hours
[3] = system: indoleamine 2,3-dioxygenase (IDO) mRNA in THP-1 cells; assay: Inhibition of Induction By IFNγ of IDO mRNA; assay type: cell-based; details: Homo sapiens, compound 400 nM, IFNγ 400 units/ml, IDO/GAPD mRNA ratio, 48 hours, read-out: IDO mRNA, Phosphorimager units, % of IFNγ-treated cells
Method: Fused pyrrolocarbazoles in accordance with our invention were tested for their ability to inhibit the induction by IFNγ of indoleamine 2,3-dioxygenase (IDO) mRNA in THP-1 cells, a human monocyte cell line.
Cell Culture: THP-1 cells (American Type Culture Collection, Rockville, Md.), a human monocytic leukemia cell line, were grown in RPMI 1640 medium (Mediatech, Herndon Valley, Va.) with 50 μM 2-mercaptoethanol and 10% fetal bovine serum. Cells were plated in T75 culture flasks, at 4×10^4 cells/cm^2 in 10 ml of medium, and were immediately treated with fused pyrrolocarbazoles at various concentrations. After 30 minutes recombinant (E. coli) IFNγ (Boehringer Mannheim Corporation,Indianapolis, Ind.) was added at 200-400 units/ml. Cells were incubated (37° C., 5% CO2 /95% Air) for 48 hours after treatment.
RNA Isolation: Cells were pelleted by centrifugation (50× g, 7 min.) and medium was decanted. The cells were then washed two times with phosphate buffered saline pH 7.2 (PBS) (Mediatech, Herndon Valley, Va.). The washed cell pellet was lysed in 2 ml RNAzol B (Tel-Test, Inc., Friendswood, Tex.). RNA was isolated by chloroform extraction, precipitated, and washed following the "RNAzol B isolation of RNA" protocol accompanying this product. RNA was then solubilized in H2 O, and the concentration and purity were determined by reading the absorbance at A260 nm and A280 nm. Finally, the RNA was reprecipitated in ethanol, overnight at -20° C.
cDNA Probes: Indoleamine 2,3-dioxygenase (IDO) cDNA was received from Sohan L. Gupta, Ph. D. (Hipple Cancer Research Center, Dayton, Ohio) (see Da., W. & Gupta, S. L. 168 Biochem. Biophys. Res. Commun. 1, 1990 and Hassanain, H. H. et al. 268 J. Biol. Chem. 5077, 1993). Glyceraldehyde-3-phosphate dehydrogenase (GAPD) cDNA was obtained through American Type Culture Collection (Rockville, Md.). These cDNA's were produced and purified using standard methods (see, Sambrook, Fritsch, Maniatis (1989) Molecular Cloning a Laboratory Manual/Second Edition 1, 1.21-1.24, 1.74-1.81, hereinafter in this Example, "Maniatis a") using Qiagen plasmid purification kits (Qiagen Inc., Chatsworth, Calif.). DNA concentration and purity were determined by absorbance at 280 nm and 260 nm. Specific DNA inserts were cut out by standard methods using restriction enzymes, and subsequently separated on agarose gels as in Maniatis (see, Sambrook, Fritsch, Maniatis (1989) Molecular Cloning a Laboratory Manual/Second Edition 1, 6.9-6.15, hereinafter in this Example, "Maniatis b"). cDNA probes were further purified for [^32 P] labeling using the Geneclean II DNA purification kit (BIO 101, Inc., La Jolla, Calif.). Probes were labeled with dCTP-α-^32 P (Amersham Corp., Arlington Heights, Ill.) by random primer labeling, using the Prime-a-GeneLabeling System (Promega Corp., Madison, Wis.).
Analysis and quantification of mRNA: IDO mRNA was detected by Northern blot analysis (see Maniatis a, p. 7.39-7.51) using standard methods. […] Quantification of IDO mRNA was carried out using a phosphorimager (Molecular Dynamics) in which density (i.e., amount of RNA) is expressed as relative phosphorimager units. […] GAPD mRNA measurement by phosphorimager quantification of Northern blots serves as a means to normalize for potential sample to sample differences in the amount of total RNA loaded on gels. […]

SMILES: O=C1NCc2c1c1c(c3[nH]c4ccccc4c23)Cc2ccccc2-1 [Compound I-2]
- ChAT Activity (% of Control) ([1]; 100 nM): inactive
- ChAT Activity (% of Control) ([1]; 1000 nM): inactive
- activity at 0.25 µM ([1]; Rattus norvegicus, 120 h, 250 nM, read-out: ChAT Activity (% of Control)): 137%
- activity at 0.5 µM ([1]; Rattus norvegicus, 120 h, 500 nM, read-out: ChAT Activity (% of Control)): 137%
- Spinal Cord ChAT Activity, % of Control, untreated cultures [2]: 160 % of Control
- mrna remaining at 0.4 µM [3]: 55%
